Biological target: T1, ROCK II (Homo sapiens, UniProt O75116)
T1 construct: purchased Proqinase
Assay: ROCK II kinase inhibition, Method 1 Proqinase setup (33P radioisotopic protein kinase assay)
Assay type: biochemical
Conditions: 33P radioisotopic assay, 1 μM ATP, read-out: IC50 Meth. 1
Protocol: A ^33P radioisotopic protein kinase assay is used to determine the IC50 for inhibiting ROCK II. A final 50 μl reaction cocktail, containing 60 mM HEPES-NaOH (pH 7.5), 3 mM MgCl2, 3 mM MnCl2, 3 μM Na-orthovanadate, 1.2 mM DTT, 1 μM ATP, 50 μg/ml PEG20.000, 1% (v/v) DMSO, 1 μM ATP (approx. 3×10^5 cpm ^33P-γ-ATP), the substrate (Substrate: S6 peptide—2000 ng/well) and recombinant protein kinase (0.5 nM-2.5 ng/well) is mixed on a shaker and incubated at 30° C. for 80 minutes. The reaction is stopped by the addition of 50 μl of a 2% solution of H3PO4 and mixed on a shaker. After washing twice with 200 μl of a 0.9% solution of NaCl, the dry plate is counted.

T1 sequence (O75116 whole entry): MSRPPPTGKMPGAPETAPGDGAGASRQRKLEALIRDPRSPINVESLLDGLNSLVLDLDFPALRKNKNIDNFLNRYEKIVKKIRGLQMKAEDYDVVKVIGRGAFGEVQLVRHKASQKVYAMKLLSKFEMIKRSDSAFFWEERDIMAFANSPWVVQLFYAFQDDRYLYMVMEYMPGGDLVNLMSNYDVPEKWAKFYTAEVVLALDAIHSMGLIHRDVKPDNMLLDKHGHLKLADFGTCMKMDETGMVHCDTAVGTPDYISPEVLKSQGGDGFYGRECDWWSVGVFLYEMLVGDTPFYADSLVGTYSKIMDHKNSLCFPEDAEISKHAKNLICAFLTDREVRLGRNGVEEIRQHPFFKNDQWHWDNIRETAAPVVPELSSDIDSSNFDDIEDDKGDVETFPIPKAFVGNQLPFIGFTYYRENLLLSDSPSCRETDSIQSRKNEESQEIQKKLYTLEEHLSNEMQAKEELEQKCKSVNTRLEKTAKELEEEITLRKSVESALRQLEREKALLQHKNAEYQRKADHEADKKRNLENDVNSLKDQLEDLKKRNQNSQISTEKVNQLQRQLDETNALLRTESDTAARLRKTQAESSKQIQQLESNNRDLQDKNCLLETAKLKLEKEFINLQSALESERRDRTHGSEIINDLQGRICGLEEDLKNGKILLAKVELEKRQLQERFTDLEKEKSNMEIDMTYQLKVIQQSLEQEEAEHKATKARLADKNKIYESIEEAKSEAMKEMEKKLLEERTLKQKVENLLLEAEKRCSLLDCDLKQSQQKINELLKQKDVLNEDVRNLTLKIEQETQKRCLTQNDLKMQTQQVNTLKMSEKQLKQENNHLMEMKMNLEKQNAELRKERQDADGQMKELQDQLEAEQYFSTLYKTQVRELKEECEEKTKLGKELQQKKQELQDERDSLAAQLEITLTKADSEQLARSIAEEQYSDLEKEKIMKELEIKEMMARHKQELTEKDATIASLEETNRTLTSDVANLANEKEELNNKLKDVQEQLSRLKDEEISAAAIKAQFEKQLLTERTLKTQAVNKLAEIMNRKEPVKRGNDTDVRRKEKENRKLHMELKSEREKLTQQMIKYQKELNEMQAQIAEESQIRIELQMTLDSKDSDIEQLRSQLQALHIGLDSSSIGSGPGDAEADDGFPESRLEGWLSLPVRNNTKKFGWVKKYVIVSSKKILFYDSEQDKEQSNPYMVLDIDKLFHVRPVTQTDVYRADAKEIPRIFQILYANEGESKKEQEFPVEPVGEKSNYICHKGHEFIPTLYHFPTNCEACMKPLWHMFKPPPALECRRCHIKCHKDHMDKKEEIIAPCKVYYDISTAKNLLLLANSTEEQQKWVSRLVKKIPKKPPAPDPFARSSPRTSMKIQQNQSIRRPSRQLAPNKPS

Row | Compound | IC50 [nM]
1 | NCc1ccc(C(=O)Nc2ccncc2)cc1-c1cccc(NCCSC2CCOC2=O)c1 (stereo not shown) [Compound 136, 6-Aminomethyl-3′-[2-(2-oxo-tetrahydro-furan-3-ylsulfanyl)-ethylamino]-biphenyl-3-carboxylic acid pyridin-4-ylamide] | 100 to 1000
2 | CCCCCOC(=O)c1cccc(-c2cc(C(=O)Nc3ccncc3)ccc2CN)c1 [Compound 15, 2′-Aminomethyl-5′-(pyridin-4-ylcarbamoyl)-biphenyl-3-carboxylic acid pentyl ester] | 100 to 1000
3 | CCCOC(=O)c1cccc(-c2cc(C(=O)Nc3ccncc3)ccc2CN)c1 [Compound 10, 2′-Aminomethyl-5′-(pyridin-4-ylcarbamoyl)-biphenyl-3-carboxylic acid propyl ester] | 100 to 1000
4 | NCc1ccc(C(=O)Nc2ccncc2)cc1-c1cccc(C(=O)NCC(N)=O)c1 [Compound 106, 6-Aminomethyl-biphenyl-3,3′-dicarboxylic acid 3′-carbamoylmethyl-amide 3-pyridin-4-ylamide] | < 100
5 | 2′-Aminomethyl-5′- (pyridin-4-ylcarbamoyl)- biphenyl-3-carboxylic acid 2-methoxy-propyl ester [Compound 42] | 100 to 1000
6 | CCCCOC(=O)c1cccc(-c2cc(C(=O)Nc3ccncc3)ccc2CN)c1 [Compound 14, 2′-Aminomethyl-5′-(pyridin-4-ylcarbamoyl)-biphenyl-3-carboxylic acid butyl ester] | 100 to 1000
7 | NCc1ccc(C(=O)Nc2ccncc2)cc1-c1cccc(C(=O)OCC2CCCC2)c1 [Compound 38, 2′-Aminomethyl-5′-(pyridin-4-ylcarbamoyl)-biphenyl-3-carboxylic acid cyclopentylmethyl ester] | 100 to 1000
8 | NCc1ccc(C(=O)Nc2ccncc2)cc1-c1cccc(C(=O)OC2CCCCC2)c1 [Compound 35, 2′-Aminomethyl-5′-(pyridin-4-ylcarbamoyl)-biphenyl-3-carboxylic acid cyclohexyl ester] | 100 to 1000
9 | NCc1ccc(C(=O)Nc2ccncc2)cc1-c1cccc(C(=O)OCC2CCCCC2)c1 [Compound 39, 2′-Aminomethyl-5′-(pyridin-4-ylcarbamoyl)-biphenyl-3-carboxylic acid cyclohexylmethyl ester] | 100 to 1000
10 | COC(=O)C1CCN(C(=O)c2cccc(-c3cc(C(=O)Nc4ccncc4)ccc3CN)c2)CC1 [Compound 124, 1-[2′-Aminomethyl-5′-(pyridin-4-ylcarbamoyl)-biphenyl-3-carbonyl]-piperidine-4-carboxylic acid methyl ester] | 1000 to 10000
11 | CCCCCCOC(=O)c1cccc(-c2cc(C(=O)Nc3ccncc3)ccc2CN)c1 [Compound 17, 2′-Aminomethyl-5′-(pyridin-4-ylcarbamoyl)-biphenyl-3-carboxylic acid hexyl ester] | 100 to 1000
12 | COC(=O)c1ccc(-c2cc(C(=O)Nc3ccncc3)ccc2CN)cc1 [Compound 2, 2′-Aminomethyl-5′-(pyridin-4-ylcarbamoyl)-biphenyl-4-carboxylic acid methyl ester] | 1000 to 10000

Now from value to compound:

Row | IC50 [nM] | Compound
13 | 100 to 1000 | NCc1ccc(C(=O)Nc2ccncc2F)cc1-c1cccc(CC(=O)OCC23CC4CC(CC(C4)C2)C3)c1 [Compound 182]
14 | 100 to 1000 | NCc1ccc(C(=O)Nc2ccncc2F)cc1-c1cccc(C(=O)OCCO)c1 [Compound 183]
15 | 100 to 1000 | NCc1ccc(C(=O)Nc2ccncc2F)cc1-c1cccc(C(=O)OCC2CCC2)c1 [Compound 184]
16 | 1000 to 10000 | NCc1ccc(C(=O)Nc2ccncc2F)cc1-c1cccc(OCC(=O)OCc2ccccc2)c1 [Compound 181]
17 | < 100 | COC(=O)CNC(=O)COc1cccc(-c2cc(C(=O)Nc3ccncc3)ccc2CN)c1 [Compound 147, {2-[2′-Aminomethyl-5′-(pyridin-4-ylcarbamoyl)-biphenyl-3-yloxy]-acetylamino}-acetic acid methyl ester]
18 | 100 to 1000 | NCc1ccc(C(=O)Nc2ccncc2F)cc1-c1cccc(C(=O)OCC2CCCC2)c1 [Compound 185]
19 | 1000 to 10000 | NCc1ccc(C(=O)Nc2ccncc2F)cc1-c1cccc(CC(=O)OCCF)c1 [Compound 192]

Reference: patent US8912209B2, “Rock inhibitors” (Amakem NV, priority 2010, dated 2014)
